The source of these data is US8637092B2, “Pharmaceutical composition for treating diabetes and its process for preparation” (Tasly Pharmaceutical Group Co., Ltd., priority 2007, dated 2014).

For this test, the system named is STZ high-blood-glucose rats. The experiment in a line: Efficacy test: blood glucose in streptozotocin (STZ) induced high-blood-glucose rats. The settings on record: STZ model male SD rats, mean ± SD, n = 10. It counts as in vivo. The procedure: Sixty of male SD rats with SPF grade, weighed 200-220 g. Tested drugs (TL-1, TL-2 and TL-3) were powder of the extract respectively prepared by Examples 3, 8 and 9. SD rats were fasted overnight after one-week adaptation, intraperitoneal and injected a solution of 2% (W/V) STZ prepared with […] citric acid buffer solution (pH 4.4) (65 mg/kg). Three days later, the blood was sampled from tail vein to assay blood glucose. Those animals with blood glucose level equal to or higher than 16.7 mmol/L were considered to be successful model. The modeled rats were randomly divided into model group, Metformin (125 mg/kg) group and different treatment groups (corresponding to 15.5 g crude drugs/kg). After one-week adaptation and the blood glucose detection, rats were administered by gastric infusion, once a day. All of the drugs were diluted with physiological saline to prepare into suspension for administration. Animals were free to access of food and water during the 15-day testing period. At the seventh and fourteenth day after administration, the rats were fasted for two hours after administration. Respectively, blood was sampled from tail vein to assay blood glucose with blood glucose meter (one-touch ultra). At the same time, the body weights of the rats were measured. Results were expressed as mean±SD ( X±SD), and t-test was used to evaluate the significant difference of measurement data between two groups.

The mark [1] stands for this setting: gastric infusion once a day, Metformin 125 mg/kg, TL 15.5 g crude drugs/kg, fasted 2 h, tail vein blood.

As for `CN(C)C(=N)N=C(N)N` [Metformin], where the note is “baseline before gastric infusion”, the “Blood glucose level before administration” value is 21.61 ± 2.066 mmol/L. For the same molecule, under setting [1], the “Blood glucose level, 14 days after administration” value worked out at 17.54 ± 1.222 mmol/L and the “blood glucose level, 7 days after administration” value worked out at 18.64 ± 0.783 mmol/L.
